Measured values from EPA's ToxValDB 9.5 (doi:10.2903/j.efsa.2013.2923).

What was measured:
Apis mellifera = settings: acute, mortality
Daphnia magna = settings: chronic/long-term
Mus musculus = settings: acute; oral; mortality
Neovison vison = settings: reproduction developmental; reproduction
Oncorhynchus mykiss = settings: acute; mortality
Oryctolagus sp. = settings: reproduction developmental; mortality
Pontoscolex corethrurus = settings: acute; mortality
Rattus norvegicus = settings: reproduction developmental; mortality
Scenedesmus quadricauda = settings: acute

Compound `[I-].[K+]` [Potassium iodide] has an LD50 (Apis mellifera; dermal) of over 0.78 µg/piece, an LD50 (Apis mellifera; oral, unspecified) of over 2.4 µg/piece and an LD50 (Bird; acute, oral, unspecified, mortality) of over 1180 mg/kg-day. It also gave an NOEC (Bird; reproductive, reproduction) of 0.69 mg/kg-day, an LC50 (Bird; short-term, oral, feed, mortality) of over 258 mg/kg-day and an NOEC (Daphnia magna) of 0.25 mg/L. The LD50 (Mus musculus) was 1860 mg/kg, the NOAEL (Neovison vison) was 0.5 mg/kg-day and the LC50 (Oncorhynchus mykiss) was 2190 µg/mL. The NOAEL (Oryctolagus sp.) was 0.5 mg/kg-day, the LC50 (Pontoscolex corethrurus) was over 12.5 mg/kg and the NOAEL (Rattus norvegicus) was 0.5 mg/kg-day. The NOEC (Scenedesmus quadricauda) was 1310 mg/L.
